PMC5834611, “A mechanism for CO regulation of ion channels” (Nature Communications, 2018)

Experiments:
[1] = target: T1, SUR2A (Rattus norvegicus, UniProt Q63563); test: spectrophotometric titration; stopped-flow, resonance Raman, ultrafast spectroscopy; assay type: binding
T1 construct: gene Abcc9; residues S615-L933 (SUR2A^615–933; CXXHX16H motif and NBD1)
T1 sequence (Q63563 615-933): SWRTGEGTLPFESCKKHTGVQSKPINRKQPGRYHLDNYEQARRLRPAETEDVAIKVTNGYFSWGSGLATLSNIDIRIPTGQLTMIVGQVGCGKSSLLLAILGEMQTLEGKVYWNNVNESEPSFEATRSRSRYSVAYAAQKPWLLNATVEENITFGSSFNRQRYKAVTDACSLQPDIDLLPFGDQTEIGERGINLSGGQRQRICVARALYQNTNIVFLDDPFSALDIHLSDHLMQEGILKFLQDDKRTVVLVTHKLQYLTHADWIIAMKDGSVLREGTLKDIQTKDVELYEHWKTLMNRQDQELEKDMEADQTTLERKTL

[2] = target: T1, SUR2A; test: UV-vis absorption titration of purified protein; koff by heme transfer to apo-myoglobin; assay type: binding

Row | SMILES | Kd [1] [µM] | Kd [2] [µM]
1 | [C-]#[O+] [carbon monoxide] | 0.6 ± 0.3 | 
2 | C=CC1=C(C)C2=Cc3c(C=C)c(C)c4[n]3[Fe]([Cl])[n]3c(c(C)c(CCC(=O)O)c3=CC3=NC(=C4)C(C)=C3CCC(=O)O)=CC1=N2 [hemin] |  | 8 ± 0.6
